Data as given in BindingDB's records for doi:10.1021/acs.jmedchem.9b00359 (Shandong University, 2019).

Assay: Inhibition of HIV1 reverse transcriptase p66/p51 K103N/Y181C mutant infected in human MT2 cells assessed as reduction in viral infection incubated for 5 days

First: Cc1c(Oc2ccccc2OCCn2ccc(=O)[nH]c2=O)cc(N(C)C(=O)CF)c2ccc(C#N)cc12
Second: C=CC(=O)N(C)c1cc(Oc2ccccc2OCCn2ccc(=O)[nH]c2=O)c(C)c2cc(C#N)ccc12
The EC50 of the first is 30-fold higher: 15 µM for the first, 0.5 µM for the second.

`C=CC(=O)Nc1cc(Oc2ccccc2OCCn2ccc(=O)[nH]c2=O)c(C)c2cc(C#N)ccc12` gave an EC50 greater than 12 µM.
